Experiments:
mouse TRPV1 (wildtype) [1] = biological target: T1, mouse TRPV1 (wildtype) (Mus musculus, UniProt Q704Y3); assay: Whole-cell patch-clamp of wild-type TRPV1 in HEK293 cells; type: cell-based
mouse TRPV1 T551V mutant = mouse TRPV1 T551V mutant (Mus musculus, UniProt Q704Y3, T551V); assay: cell-based; type: cell-based
mouse TRPV1 Y512A mutant = mouse TRPV1 Y512A mutant (Mus musculus, UniProt Q704Y3, Y512A); type: cell-based; conditions: saturating concentration for the wildtype channel; whole-cell recording
Sequence of mouse TRPV1 Y512A mutant (Q704Y3 whole entry Y512A): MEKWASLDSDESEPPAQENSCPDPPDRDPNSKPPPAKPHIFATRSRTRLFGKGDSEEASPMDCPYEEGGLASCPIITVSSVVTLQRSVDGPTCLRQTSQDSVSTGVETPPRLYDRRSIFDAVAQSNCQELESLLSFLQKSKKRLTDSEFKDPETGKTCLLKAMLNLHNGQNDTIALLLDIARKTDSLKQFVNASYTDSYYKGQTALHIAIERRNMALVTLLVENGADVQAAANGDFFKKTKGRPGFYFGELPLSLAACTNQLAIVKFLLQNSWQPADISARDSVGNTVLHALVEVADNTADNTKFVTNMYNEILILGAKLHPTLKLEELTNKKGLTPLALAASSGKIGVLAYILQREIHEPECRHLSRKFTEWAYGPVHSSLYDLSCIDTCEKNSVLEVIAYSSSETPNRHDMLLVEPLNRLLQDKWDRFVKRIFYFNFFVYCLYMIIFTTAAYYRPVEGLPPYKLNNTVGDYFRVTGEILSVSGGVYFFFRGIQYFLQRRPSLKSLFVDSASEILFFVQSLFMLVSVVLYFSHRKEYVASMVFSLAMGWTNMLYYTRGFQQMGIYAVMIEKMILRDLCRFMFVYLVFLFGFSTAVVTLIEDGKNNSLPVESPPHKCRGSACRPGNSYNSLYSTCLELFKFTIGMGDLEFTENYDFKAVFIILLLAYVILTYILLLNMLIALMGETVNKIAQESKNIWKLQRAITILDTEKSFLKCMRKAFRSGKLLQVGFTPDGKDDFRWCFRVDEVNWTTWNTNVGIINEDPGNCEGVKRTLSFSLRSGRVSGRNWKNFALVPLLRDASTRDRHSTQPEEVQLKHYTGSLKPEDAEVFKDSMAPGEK

mouse TRPV1 E571A mutant = mouse TRPV1 E571A mutant (Mus musculus, UniProt Q704Y3, E571A); assay: Whole-cell patch-clamp of TRPV1 E571A mutant; type: cell-based; conditions: whole-cell recording
Sequence of mouse TRPV1 E571A mutant (Q704Y3 whole entry E571A): as the sequence (Q704Y3 whole entry Y512A) above, with A512Y, E571A counted along it

mouse TRPV1 (wildtype) [2] = biological target: T1, mouse TRPV1 (wildtype); conditions: WT channel; cited from earlier work

Sequence of mouse TRPV1 T551V mutant (Q704Y3 whole entry T551V): as the sequence (Q704Y3 whole entry Y512A) above, with A512Y, T551V counted along it
T1 sequence (Q704Y3 whole entry): as the sequence (Q704Y3 whole entry Y512A) above, with A512Y counted along it

Row | EC50 (mouse TRPV1 (wildtype) [1]) | shift of activation to higher concentration, T551V versus wildtype (mouse TRPV1 T551V mutant) | activation of the Y512A mutant (mouse TRPV1 Y512A mutant) | activation of the E571A mutant (mouse TRPV1 E571A mutant) | Compound | EC50 (mouse TRPV1 T551V mutant) | maximum open probability (Po_max) (mouse TRPV1 (wildtype) [2])
1 | 146 ± 39 nM | about 10 fold | activated | can still activate | COc1cc(CNC(=O)CCCC/C=C/C(C)C)ccc1O [capsaicin] | – | –
2 | – | – | largely activated | – | NCCOB(c1ccccc1)c1ccccc1 [2-APB, 2-aminoethyl diphenylborinate] | – | ~100%
3 | 290 ± 80 nM | – | – | barely opened | CCCCCCCC/C=C\CCCCCCCC(=O)NCCc1ccc(O)c(O)c1 [OLDA, N-oleoyldopamine] | 540 ± 140 nM | –

Row | Compound | EC50 (mouse TRPV1 (wildtype) [1]) | shift of activation to higher concentration, T551V versus wildtype (mouse TRPV1 T551V mutant) | activation of the Y512A mutant (mouse TRPV1 Y512A mutant) | activation of the E571A mutant (mouse TRPV1 E571A mutant) | EC50 (mouse TRPV1 T551V mutant) | maximum open probability (Po_max) (mouse TRPV1 (wildtype) [2])
4 | CCCCC/C=C\C/C=C\C/C=C\C/C=C\CCCC(=O)NCCO [AEA, anandamide] | 6020 ± 1230 nM | – | – | barely opened | 4880 ± 780 nM | –

Reference: PMC8387766 (The Journal of Biological Chemistry, 2021)
